Measurements: patent publication US9109045B2, “Mass producing growth factor using adipose derived adult stem cells” (PROSTEMICS CO., LTD., priority 2006, dated 2015)
Several values for one entry are separate records, joined by “and”; a condition that tells them apart may be missing. Identical values can stand only once. Like-named read-outs stand apart in the source and are kept apart here.

Legend:
[1] = tested on: adipose-derived stem cells; assay: Growth factor secretion (ELISA) of adipose-derived stem cells under chemical stimulation with vitamins; assay type: cell-based, human; details: for optimal concentration for synthesis of growth factors: added to serum-free culture medium of adipose-derived stem cells; for TGF β-1 expression / protein levels increased / VEGF expression / protein levels increased / bFGF expression / protein levels increased: chemical stimulation only, vitamin(s) at optimal concentration in serum-free medium, more than 48 hours, compared with control group
Protocol: In order to examine whether chemical stimulation using a vitamin promotes the synthesis and secretion of growth factors, in the present invention, adipose-derived stem cells were cultured in vitro using serum media and then using serum-free media as described above.
Preferably, after vitamin is added to the culture medium, the culture is incubated for more than 48 hours. When a mixture of vitamins is used, the optimal concentrations of vitamins are the same as above.
Specifically, 1 ml of the culture medium obtained by culturing adipose-derived stem cells to passage 3 in the conditions of Example 1-2 was centrifuged at 1200 g for 5 minutes, and then filtered through a […] filter to remove cell residue. […] Then, the concentration of each of growth factors VEGF, bFGF and TGF β-1 secreted in the culture medium was measured using a sandwich ELISA kit (Quantikine Human FGF basic Immunoassay, R&D systems).
To examine the concentrations of optimally diluted growth factors, the culture medium was serially diluted at the same concentration ratio with a calibration dilution in the kit, the concentration at the absorbance included in the range of the standard curve was determined, and the values included in the range of the standard curve were plotted as data. […] of each growth factor-containing culture media and standard solutions of growth factors was placed in each well coated with an antibody to each of the growth factors (Quantikine Human FGF basic Immunoassay, R&D systems) and was cultured at room temperature for 2 hours. After completion of the antigen-antibody binding reaction, each well was washed four times with wash buffer, and […] of a solution (Quantikine Human FGF basic Immunoassay, R&D systems), containing a secondary antibody to each of the growth factors, was placed in each well, followed by culture at room temperature for 2 hours. After completion of the second antibody binding reaction, each well was washed four times with wash buffer, […] of a color-developing reagent (tetramethylbenzidine, R&D systems) was added to each well, and then the absorbance of the medium was measured at 450 nm with an ELISA reader.
Adipose tissue-derived stem cells were cultured to passage 3 as described in Example (1-2), and when the cultured cells reached a confluence of 80%, the cells were collected with trypsin/EDTA. Then, the cells were accurately dispensed into a 6-well plate at a density of 25,000 cells/well. […]
Cells were cultured in this medium.
The cells were cultured in the above medium in a 5% carbon dioxide incubator at 37° C. for more than 48 hours, and then 200 μl of the culture medium supernatant was centrifuged at 3,000 rpm and filtered through 0.22-μm filter paper. Then, the concentrations of bFGF, VEGF and TGF β-1 in the filtrate were measured by the enzyme-linked immunosorbent assay (ELISA) of Example 2.
As a control group, a normal medium, was used, which was not subjected to physical stimulation or chemical stimulation. The increase in growth factors was compared between the control group and the culture medium subjected to physical stimulation and chemical stimulation.
In a culture process, cells were added to a serum-free medium prepared by adding a Ham's F-12 nutrient mixture to DMEM not containing a pH indicator such as phenol red, at a ratio of 1:1, and adding thereto 2 mM L-glutamine, 1 mM sodium pyruvate and 0.17% sodium bicarbonate. Then, the cells were cultured in a 5% carbon dioxide incubator at 37° C. for more than 48 hours. Then, 200 μl of the culture medium supernatant was centrifuged at 3,000 rpm, and then filtered through 0.22-μm filter paper. Then, the concentrations of bFGF, VEGF and TGF β-1 were measured by the enzyme-linked immunosorbent assay (ELISA) of Example 2.
The case where physical stimulation is used in combination with chemical stimulation will now be described.
For VEGF, a medium was irradiated with UV light and then subjected to scratch stimulation. […]

[2] = tested on: adipose-derived stem cells
[3] = tested on: fibroblast cells; assay: Cell proliferation potential: stem cell culture medium vs recombinant growth factor-containing media; assay type: cell-based, human; details: 5000 cells/well seeded; rFGF 50 ng, rVEGF 500 ng in normal media; stem cell medium at 100%
Protocol: Stem cells isolated from adipose tissue were cultured to passage-3 as described in Example (1-2), and then 10^6 cells of the stem cells were seeded into a T175 flask (area: 175 cm^2; volume: 500 ml) and cultured for 3 days. The culture medium was collected, and added at a concentration of 100% to a 6-well plate in which passage-4 fibroblast cells from the skin tissue of a child were dispensed at a density of 5000 cells/well. For the control group, a medium containing the same concentrations of recombinant growth factors VEGF and bFGF (Santa Cruz.) expressed in E. coli was used. Cell proliferation potential was compared between the adipose-derived stem cell culture medium and the recombinant growth factor-containing culture medium using a cell viability measurement kit.

[4] = tested on: keratinocytes; assay: Defensive effect against exposure of keratinocytes to UV light (cell viability); assay type: cell-based; details: UV light 40 W double lamp 8 minutes, viability after 24 hours, 2.5 cc medium in 5 cc KGM or 2 uM retinol
Protocol: The defensive effect of growth factors secreted from adipose-derived stem cells against the exposure of keratinocytes UV light was tested in the following manner. Keratinocytes were dispensed into a 6-well plate at a suitable cell concentration in KGM (karatinocyte growth medium; Clonetics.) and incubated in a 5% carbon dioxide incubator at 37° C. To the medium, 2.5 cc of 100% ADSC 3-passage 3-day cultured medium was added to adjust the KGM to 5 cc. Also, 2 uM retinol was added to 5 cc of KGM. Also, as a negative control group, 5 cc of KGM alone was administered to keratinocytes. Each of the test samples was stabilized for 4 hours, such that the raw materials were sufficiently dispersed. After that, each of the test samples was irradiated with UV light using a 40 W double lamp for 8 minutes in an aseptic laboratory. After 24 hours, the UV defense function of the test sample was measured by determining the viability of the cells in comparison with the negative control group, which was untreated with the culture medium or retinol and irradiated with UV light for 8 minutes.

Molecule | optimal concentration for synthesis of growth factors [1] | TGF β-1 expression / protein levels increased [1] [times] | VEGF expression / protein levels increased [1] | bFGF expression / protein levels increased [1] [times] | cytotoxicity by MTT assay ([2]; at the optimal concentrations) | cell proliferation potential, Cells [3] [Cells] | cytotoxicity by MTT assay [2] | Defensive effect [4] [%] | Defensive effect ([4]; listed as retinol) [%]
Cc1cc2nc3c(=O)[nH]c(=O)nc-3n(C[C@H](O)[C@H](O)[C@H](O)CO)c2cc1C [vitamin B, riboflavin] | 50 to 100 µM | 1.56 | 1.68 times and 1.56 times | 1.33 | – | – | – | – | –
O=C1O[C@H]([C@@H](O)CO)C(O)=C1O [vitamin C] | 10 to 100 µM | 1.20 | 1.68 times | 2.33 | no cytotoxicity occurred | – | – | – | –
vitamin D | 5 to 10 µM | 1.16 | 1.30 times | 2.80 | – | – | – | – | –
rFGF: recombinant growth factor bFGF (Santa Cruz) expressed in E. coli | – | – | – | – | – | 8215.3 | – | – | –
vitamin A | 2 to 5 µM and 2 to 10 µM | 1.20 | 1.59 times | 1.62 | – | – | no cytotoxicity occurred | – | –
CC1=C(/C=C/C(C)=C/C=C/C(C)=C/CO)C(C)(C)CCC1 [Retinol] | – | – | – | – | – | – | – | 54 | 54
